In PubChem BioAssay AID328 (DTP/NCI, 2004):
Where “and” joins values, the source holds several entries; their conditions need not be identical. Identical values can stand only once. Inconclusive results and toxic doses are left out.

Tested on: BDF1 mice, P388 leukemia ip, median survival T/C
Assay: NCI In Vivo Anticancer Drug Screen. Data for tumor model P388 Leukemia (intraperitoneal) in B6D2F1 (BDF1) mice
Details: endpoint: median survival time, higher = longer survival
Summary of the method: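 Vehicle-dosed animals serve as the reference; survival of compound-dosed, tumour-implanted mice is divided by it.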

[1] = dose: 100.0 mg/kg/injection, schedule: Q04DX003 (ip), vehicle: saline
[2] = dose: 50.0 mg/kg/injection, schedule: Q01DX009 (ip), vehicle: saline
[3] = dose: 100.0 mg/kg/injection, schedule: Q01DX009 (ip), vehicle: saline
[4] = dose: 50.0 mg/kg/injection, schedule: Q01DX009 (ip), vehicle: saline with Tween-80
[5] = dose: 100.0 mg/kg/injection, schedule: Q01DX009 (ip), vehicle: saline with Tween-80
[6] = dose: 100.0 mg/kg/injection, schedule: Q04DX003 (ip), vehicle: Klucel (hydroxypropylcellulose) (HPC)
[7] = dose: 200.0 mg/kg/injection, schedule: Q01DX009 (ip), vehicle: saline with Tween-80
[8] = dose: 200.0 mg/kg/injection, schedule: Q04DX003 (ip), vehicle: Klucel (hydroxypropylcellulose) (HPC)
[9] = dose: 200.0 mg/kg/injection, schedule: Q01DX009 (ip), vehicle: saline
[10] = dose: 100.0 mg/kg/injection, schedule: Q04DX003 (ip), vehicle: saline with Tween-80
[11] = dose: 200.0 mg/kg/injection, schedule: Q04DX003 (ip), vehicle: saline with Tween-80
[12] = dose: 400.0 mg/kg/injection, schedule: Q04DX003 (ip), vehicle: saline with Tween-80
[13] = dose: 25.0 mg/kg/injection, schedule: Q04DX003 (ip), vehicle: Klucel (hydroxypropylcellulose) (HPC)
[14] = dose: 12.5 mg/kg/injection, schedule: Q01DX009 (ip), vehicle: saline with Tween-80

CCOC(=O)Nc1nc(Cl)c(Cl)nc1Cl
T/C (dose: 0.78 mg/kg/injection, schedule: Q01DX009 (ip), vehicle: water): 105 % of control | T/C (dose: 1.56 mg/kg/injection, schedule: Q01DX009 (ip), vehicle: water): 114 % of control | T/C (dose: 3.12 mg/kg/injection, schedule: Q01DX009 (ip), vehicle: water): 96 % of control | T/C (dose: 6.25 mg/kg/injection, schedule: Q01DX009 (ip), vehicle: water): 100 % of control and 110 % of control | T/C (dose: 6.25 mg/kg/injection, schedule: Q04DX003 (ip), vehicle: water): 90 % of control | T/C (dose: 12.5 mg/kg/injection, schedule: Q01DX009 (ip), vehicle: water): 91 % of control and 95 % of control | T/C (dose: 12.5 mg/kg/injection, schedule: Q04DX003 (ip), vehicle: water): 266 % of control and 102 % of control | T/C (dose: 25.0 mg/kg/injection, schedule: Q01DX009 (ip), vehicle: water): 100 % of control | T/C (dose: 25.0 mg/kg/injection, schedule: Q04DX003 (ip), vehicle: water): 269 % of control | T/C (dose: 50.0 mg/kg/injection, schedule: Q01DX009 (ip), vehicle: water): 87 % of control and 89 % of control | T/C (dose: 50.0 mg/kg/injection, schedule: Q04DX003 (ip), vehicle: water): 266 % of control and 116 % of control | T/C (dose: 100.0 mg/kg/injection, schedule: Q01DX009 (ip), vehicle: water): 89 % of control and 95 % of control | T/C (dose: 200.0 mg/kg/injection, schedule: Q01DX009 (ip), vehicle: water): 105 % of control and 108 % of control | T/C (dose: 400.0 mg/kg/injection, schedule: Q01DX009 (ip), vehicle: water): 118 % of control

[O-][n+]1onc2c(-c3ccccc3)nnc(-c3ccccc3)c21
T/C (dose: 100.0 mg/kg/injection, schedule: Q04DX003 (ip), vehicle: saline sonified): 104 % of control | T/C (dose: 200.0 mg/kg/injection, schedule: Q04DX003 (ip), vehicle: saline sonified): 90 % of control | T/C (dose: 400.0 mg/kg/injection, schedule: Q04DX003 (ip), vehicle: saline sonified): 100 % of control

COc1ccc2c(c1)CCNC2CCO (stereo not given)
T/C (dose: 25.0 mg/kg/injection, schedule: Q04DX003 (ip), vehicle: saline): 120 % of control | T/C (dose: 50.0 mg/kg/injection, schedule: Q04DX003 (ip), vehicle: saline): 110 % of control | T/C [1]: 120 % of control

CCCCN=C(N)N=C(N)N
T/C [2]: 105 % of control | T/C [3]: 108 % of control

COc1cc2c(cc1OC)/C(=N\O)CCCC2
T/C [4]: 119 % of control | T/C [5]: 114 % of control | T/C [6]: 100 % of control | T/C [7]: 90 % of control | T/C [8]: 100 % of control | T/C (dose: 400.0 mg/kg/injection, schedule: Q04DX003 (ip), vehicle: Klucel (hydroxypropylcellulose) (HPC)): 100 % of control

O=c1[nH]cnc2c1ncn2C1OC(CO)C(O)C1O (stereo not given)
T/C [3]: 99 % of control | T/C [9]: 100 % of control | T/C (dose: 400.0 mg/kg/injection, schedule: Q01DX009 (ip), vehicle: saline): 103 % of control

CCSC(=O)CC
T/C [4]: 95 % of control | T/C [5]: 105 % of control | T/C [10]: 104 % of control | T/C [7]: 100 % of control | T/C [11]: 104 % of control | T/C [12]: 100 % of control

CC1(C)N=C(N)N=C(N)N1c1ccc(C(N)=O)cc1
T/C (dose: 50.0 mg/kg/injection, schedule: Q01DX005 (ip), vehicle: Klucel (hydroxypropylcellulose) (HPC)): 109 % of control | T/C (dose: 100.0 mg/kg/injection, schedule: Q01DX005 (ip), vehicle: Klucel (hydroxypropylcellulose) (HPC)): 112 % of control

CC(=O)c1cccc(OCc2ccccc2)c1
T/C (dose: 100.0 mg/kg/injection, schedule: Q01DX009 (ip), vehicle: other): 118 % of control | T/C (dose: 100.0 mg/kg/injection, schedule: Q04DX003 (ip), vehicle: other): 100 % of control | T/C (dose: 200.0 mg/kg/injection, schedule: Q01DX009 (ip), vehicle: other): 95 % of control | T/C (dose: 200.0 mg/kg/injection, schedule: Q04DX003 (ip), vehicle: other): 95 % of control | T/C (dose: 400.0 mg/kg/injection, schedule: Q01DX009 (ip), vehicle: other): 109 % of control | T/C (dose: 400.0 mg/kg/injection, schedule: Q04DX003 (ip), vehicle: other): 116 % of control

CCOc1ccc(C(/C(Cl)=N/O)C(Cl)(Cl)Cl)cc1 (stereo not given)
T/C (dose: 5.5 mg/kg/injection, schedule: Q01DX009 (ip), vehicle: Klucel (hydroxypropylcellulose) (HPC)): 109 % of control | T/C (dose: 6.25 mg/kg/injection, schedule: Q04DX003 (ip), vehicle: Klucel (hydroxypropylcellulose) (HPC)): 100 % of control | T/C (dose: 8.2 mg/kg/injection, schedule: Q01DX009 (ip), vehicle: Klucel (hydroxypropylcellulose) (HPC)): 100 % of control | T/C (dose: 12.5 mg/kg/injection, schedule: Q04DX003 (ip), vehicle: Klucel (hydroxypropylcellulose) (HPC)): 95 % of control | T/C [13]: 100 % of control | T/C (dose: 35.0 mg/kg/injection, schedule: Q04DX003 (ip), vehicle: Klucel (hydroxypropylcellulose) (HPC)): 120 % of control | T/C (dose: 55.0 mg/kg/injection, schedule: Q04DX003 (ip), vehicle: Klucel (hydroxypropylcellulose) (HPC)): 110 % of control | T/C (dose: 80.0 mg/kg/injection, schedule: Q04DX003 (ip), vehicle: Klucel (hydroxypropylcellulose) (HPC)): 110 % of control | T/C (dose: 120.0 mg/kg/injection, schedule: Q04DX003 (ip), vehicle: Klucel (hydroxypropylcellulose) (HPC)): 100 % of control

C/C=C/C[P+](C)(c1ccccc1)c1ccccc1
T/C (dose: 0.2 mg/kg/injection, schedule: Q01DX009 (ip), vehicle: saline): 104 % of control | T/C (dose: 0.4 mg/kg/injection, schedule: Q01DX009 (ip), vehicle: saline): 103 % of control | T/C (dose: 0.8 mg/kg/injection, schedule: Q01DX009 (ip), vehicle: saline): 104 % of control

COc1ccc(C(=O)OCCN(CCN(CCOC(=O)c2ccc(OC)cc2)C(=O)c2ccc(OC)cc2)C(=O)c2ccc(OC)cc2)cc1
T/C (dose: 6.25 mg/kg/injection, schedule: Q01DX009 (ip), vehicle: Klucel (hydroxypropylcellulose) (HPC)): 95 % of control | T/C (dose: 12.5 mg/kg/injection, schedule: Q01DX009 (ip), vehicle: Klucel (hydroxypropylcellulose) (HPC)): 95 % of control | T/C [13]: 91 % of control | T/C (dose: 50.0 mg/kg/injection, schedule: Q04DX003 (ip), vehicle: Klucel (hydroxypropylcellulose) (HPC)): 90 % of control | T/C [6]: 96 % of control | T/C [8]: 91 % of control

CC1=CC(=O)C2=C(C)CCC3C(C)C(=O)OC3C12 (stereo not given)
T/C [10]: 100 % of control | T/C [11]: 111 % of control | T/C [12]: 116 % of control

CC[C@@]1(O)C[C@H](OC2CC(N(C)C)C(OC3CC(O)C(OC4CC(O)C(O)C(C)O4)C(C)O3)C(C)O2)c2c(cc3c(c2O)C(=O)c2c(O)ccc(O)c2C3=O)[C@H]1C(=O)OC (stereo not given in full)
T/C (dose: 1.08 mg/kg/injection, schedule: Q04DX003 (ip), vehicle: water): 185 % of control | T/C (dose: 1.8 mg/kg/injection, schedule: Q04DX003 (ip), vehicle: water): 194 % of control | T/C (dose: 1.9 mg/kg/injection, schedule: Q01DX001 (ip), vehicle: other): 169 % of control | T/C (dose: 3.8 mg/kg/injection, schedule: Q01DX001 (ip), vehicle: other): 196 % of control | T/C (dose: 5.0 mg/kg/injection, schedule: Q04DX003 (ip), vehicle: water): 101 % of control | T/C (dose: 7.5 mg/kg/injection, schedule: Q01DX001 (ip), vehicle: other): 198 % of control

NC(C(=O)O)C1=CCC=CC1 (stereo not given)
T/C [4]: 98 % of control | T/C [5]: 99 % of control

Clc1cc(CBr)c(CBr)cc1Cl
T/C [14]: 100 % of control

O=[N+]([O-])c1ccc(-c2nc3ncccn3n2)cc1
T/C [10]: 90 % of control | T/C [11]: 100 % of control | T/C [12]: 100 % of control

O=c1nc(Oc2ccccc2)nc2ncccn12
T/C [14]: 121 % of control

Cc1c(Cl)cccc1NC(=O)COc1ccc(Cl)cc1Cl
T/C [10]: 108 % of control | T/C [11]: 87 % of control | T/C [12]: 95 % of control

CC(O)C(C)(O)C(=O)O (stereo not given)
T/C [2]: 103 % of control | T/C [3]: 117 % of control | T/C [1]: 101 % of control | T/C [9]: 91 % of control | T/C (dose: 200.0 mg/kg/injection, schedule: Q04DX003 (ip), vehicle: saline): 95 % of control | T/C (dose: 300.0 mg/kg/injection, schedule: Q01DX009 (ip), vehicle: saline): 99 % of control

CCNC(C)(C)C(SSSC(c1cccs1)C(C)(C)NCC)c1cccs1 (stereo not given)
T/C (dose: 100.0 mg/kg/injection, schedule: Q01DX001 (ip), vehicle: saline): 104 % of control | T/C (dose: 200.0 mg/kg/injection, schedule: Q01DX001 (ip), vehicle: saline): 118 % of control
